For three compounds, pest or weed control and melting point results are on record in patent US9920030B2 (priority 2006, dated 2018).

Structures are written as SMILES. Like-named read-outs stand apart in the source and are kept apart here.

Series [1] relates to Phytophthora infestans (the causal agent of tomato late blight). Nature of the series: whole plant or invertebrate. The note with it: Phytophthora infestans, 96 h, read-out: Percent Disease Control, Test C. In kind it is in vivo.
Series [2] has the same test system. Nature of the series: whole plant or invertebrate. In kind it is in vivo. The note with it: Phytophthora infestans, 144 h, read-out: Percent Disease Control, Test B.
The subject of series [3] is Plasmopara vilicola (the causal agent of grape downy mildew). Nature of the series: Test A: grape downy mildew, test suspension sprayed on grape seedlings after inoculation, visual disease rating. In kind it is in vivo. The note with it: Plasmopara, 144 h; * tested at 40 ppm; read-out: Percent Disease Control, Test A. An outline of the steps: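 Curative spray: spores applied first, plants kept 24 h in saturated air at 20 °C and dried before treatment, then 5 days at 20 °C plus 24 h saturated. Suspension: acetone (3% of volume) in 1:1 acetone/water, 250 ppm Trem 014, sprayed to run-off (200 ppm ≈ 500 g/ha); visual 0–100 control rating.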

On to `COc1ccc(C2CC(c3csc(C4CCN(C(=O)Cn5nc(C(F)(F)F)cc5C)CC4)n3)=NO2)cc1` (stereo not drawn) [Compound 18, 1-[4-[4-[4,5-dihydro-5-(4-methoxyphenyl)-3-isoxazolyl]-2-thiazolyl]-1-piperidinyl]-2-[5-methyl-3-(trifluoromethyl)-1H-pyrazol-1-yl]ethanone], for which the melting point lay in the range of 119 to 124 °C. In addition, in series [1], the pest or weed control at 40 ppm was determined as 99%. In addition, the pest or weed control at 40 ppm in series [2] came to 100%. In addition, the pest or weed control at 40 ppm in series [3] turned out to be 100%.
As to `CCc1cc(C(F)(F)F)nn1CC(=O)N1CCC(c2nc(C3=NOC(c4ccccc4)C3)cs2)CC1` (stereo not drawn) [Compound 19, 1-[4-[4-(4,5-dihydro-5-phenyl-3-isoxazolyl)-2-thiazolyl]-1-piperidinyl]-2-[5-ethyl-3-(trifluoromethyl)-1H-pyrazol-1-yl]ethanone], the melting point lay within 128 to 133 °C. The pest or weed control at 40 ppm in series [1] was 99%. Besides, the pest or weed control at 40 ppm in series [2] was found to be 100%. Besides, in series [3], the pest or weed control at 40 ppm was 100%.
With `O=C(Cn1nc(C(F)(F)F)cc1C(F)(F)F)N1CCC(c2nc(C3=NOC(c4ccccc4)C3)cs2)CC1` (stereo not drawn) [Compound 22, 2-[3,5-bis(trifluoromethyl)-1H-pyrazol-1-yl]-1-[4-[4-(4,5-dihydro-5-phenyl-3-isoxazolyl)-2-thiazolyl]-1-piperidinyl]ethanone], the melting point fell in the range of 130 to 133 °C. Also, the pest or weed control at 40 ppm in series [1] turned out to be 99%. Also, the pest or weed control at 40 ppm in series [2] amounted to 100%. The pest or weed control at 40 ppm in series [3] worked out at 100%.
